From patent US9499462B2, “Isolated compounds from turmeric oil and methods of use” (Cognition Therapeutics, Inc., priority 2011, dated 2016)
“Also recorded” adds a separate entry of the source.

Tests used:
[1] = system: Abeta oligomer-induced acceleration of exocytosis (membrane trafficking) in primary neurons; assay: Exocytosis / MTT membrane trafficking assay in mature primary neurons treated with Abeta oligomers; assay type: cell-based, Sprague-Dawley rat; conditions: for block of Abeta oligomer effects on membrane trafficking (in words): primary neurons in vitro; for efficacy relative to the parent CT0093 (in words) / potency relative to the parent CT0093 (in words): 21DIV primary neurons
Description: Primary neurons from E18 Sprague-Dawley rat embryos are plated at optimized concentrations in 384 well plates in NB media (Invitrogen). Neurons are maintained in cultures for 3 weeks, with twice weekly feeding of NB media with N2 supplement (Invitrogen). A test compound is added to cells, followed by addition of Vehicle or Abeta oligomer preparations (1.5 μM), and incubated for 1 to 24 hr. at 37° C. in 5% CO2. MTT reagent (3-(4,5-dimethylthizaol-2-yl)-2,5diphenyl tetrazolium bromide) (Roche Molecular Biochemicals) is reconstituted in phosphate buffered saline to 5 mg/mL. 10 μL of MTT labeling reagent is added to each well and incubated at 37° C. for 1 h, then imaged.
Each assay plate is formatted so that compounds are tested with and without Abeta on each plate.
Similar procedures for exocytosis assays/MTT assays can be found in the literature. See e.g., Liu Y, et. al., Detecting bioactive amyloid beta peptide species in Alzheimer's disease. J. Neurochem. 2004 November; 91(3):648-56; Liu Y, and Schubert D. “Cytotoxic amyloid peptides inhibit cellular 3-(4,5-dimethylthiazol-2-yl)-2,5-diphenyltetrazolium bromide (MTT) reduction by enhancing MTT formazan exocytosis.” J. Neurochem. 1997 December; 69(6):2285-93; and Liu Y, and Schubert D. “Treating Alzheimer's disease by inactivating bioactive amyloid beta peptide” Curr. Alzheimer Res. 2006 April; 3(2):129-35. Abeta 1-42 oligomers made according to published methods [See e.g. Dahlgren et al., “Oligomeric and fibrillar species of amyloid-beta peptides differentially affect neuronal viability” J Biol. Chem. 2002 Aug. 30; 277(35):32046-53. Epub 2002 Jun. 10. LeVine H 3rd. “Alzheimer's beta-peptide oligomer formation at physiologic concentrations” Anal Biochem. 2004 Dec. 1; 335(1):81-90; Shrestha et. al, “Amyloid beta peptide adversely affects spine number and motility in hippocampal neurons” Mol Cell Neurosci. 2006 November; 33(3):274-82. Epub 2006 Sep. 8; Puzzo et al., “Amyloid-beta peptide inhibits activation of the nitric oxide/cGMP/cAMP-responsive element-binding protein pathway during hippocampal synaptic plasticity” J. Neurosci. 2005 Jul. 20; 25(29):6887-97; Barghorn et al., “Globular amyloid beta-peptide oligomer—a homogenous and stable neuropathological protein in Alzheimer's disease” J. Neurochem. 2005 November; 95(3):834-47. Epub 2005 Aug. 31; Johansson et al., Physiochemical characterization of the Alzheimer's disease-related peptides A beta 1-42 Arctic and A beta 1-42 wt. […] Negative controls include vehicle-treated neurons as well as neurons treated with 28 μM concentrations of memantine. […] These controls, on each plate, serve as normalization tools to calibrate assay performance on a plate-by-plate basis.
Primary neuronal cultures are prepared as follows: Optimal cell density of primary neuronal cultures is determined based on cellular response to Abeta oligomers using the exocytosis assay as a readout, and immunohistochemical analysis of the relative proportion of glia to neurons in the cultures. Cultures are monitored on a weekly basis with immunohistochemistry and image processing-based quantification to monitor the percentage of the cultures that are neurons vs. glia (Glial cells). Cultures containing more than 20% glia (positive for GFAP) vs. neurons (staining positively with antibodies directed against MAP2) at the screening age of 21 days in vitro (21 DIV) are rejected.
Toxicity is monitored in each image-based assay via quantification of nuclear morphology visualized with the DNA binding dye DAPI (Invitrogen). Nuclei that are fragmented are considered to be in late stage apoptosis (Majno and Joris '95). Peptide lots producing unusual peptide size ranges or significant toxicity at a standard 1.5 uM concentration on neurons are rejected.

in vivo = conditions: rat, 1 mg/kg
Description: PK studies are performed at CEREP Inc. of Redmond Wash., according to their standard protocols: The plasma samples were processed using acetonitrile precipitation and analyzed by HPLC-MS or HPLC-MS/MS. Peak areas were recorded, and the concentrations of the test compound in the unknown plasma samples were determined using the respective calibration curve. The reportable linear range of the assay was determined, along with the lower limit of quantitation (LLQ).
Pharmacokinetic studies were performed according to the following protocols: The plasma samples were processed using acetonitrile precipitation and analyzed by HPLC-MS or HPLC-MS/MS. Peak areas were recorded, and the concentrations of the test compound in the unknown plasma samples were determined using the respective calibration curve. The reportable linear range of the assay was determined, along with the lower limit of quantitation (LLQ).

[2] = system: Abeta oligomer effects on memory; assay: Fear conditioning assay (contextual memory, Abeta oligomer administration); assay type: in vivo, mice
Description: CT0109 and CT0093 were tested in an animal model of a memory-dependent behavioral task known as fear conditioning. The study protocol was designed based on published protocols (See e.g. Puzzo D, Privitera L, Leznik E, Fa M, Staniszewski A, Palmeri A, Arancio O. Picomolar amyloid-beta positively modulates synaptic plasticity and memory in hippocampus. J Neurosci. 2008 Dec. 31; 28(53):14537-45.). The formation of contextual memories is dependent upon the integrity of medial temporal lobe structures such as the hippocampus. In this assay mice were trained to remember that a particular salient context (conditioned stimulus; CS) is associated with an aversive event, in this case a mild foot shock (the unconditioned stimulus, US). Animals that show good learning will express an increase in freezing behavior when placed back into the same context. This freezing is absent in a novel context. Increased freezing in the context indicates strong hippocampal-dependent memory formation in animals. Memory tested in Fear Conditioning is sensitive to elevations of soluble Aβ. […] The fear condition model for memory was performed as described herein.

[3] = system: 9 month old male Swe/Ldn mice; assay: Behavioral efficacy in transgenic Swe/Ldn mice (osmotic minipump); assay type: in vivo; conditions: transgenic mouse model of AD
Description: CT0093 was tested for its ability to reverse deficits in 9 month old male Swe/Ldn mice in a pilot study at 1 and 10 mg/kg/day via the osmotic minipump method.
Subcutaneous administration of 10 mg/kg/day of CT0093 (shown in gray squares and solid gray line and solid bar) achieved brain concentrations of 540 nM (FIG. 9).

[4] = system: Abeta oligomer-induced synapse loss; assay: Abeta oligomer-induced synapse loss in vitro; assay type: cell-based

SMILES: C[C@]12N[C@H](Cc3ccccc31)c1ccccc12 [MK-801, reference compound]
- block of Abeta oligomer effects on membrane trafficking (in words) [1]: none were active

SMILES: O[C@H]1[C@H](O)[C@@H](O)[C@H](O)[C@@H](O)[C@@H]1O [scyllo-inositol (AZD-103), scyllo-inositol, reference compound]
- block of Abeta oligomer effects on membrane trafficking (in words) [1]: none were active

SMILES: CC1=CC=C(C(C)CC(CC(C)(C)O)NCC(C)C)CC1 (stereo not drawn) [CT1296, 4-(isobutylamino)-2-methyl-6-(4-methylcyclohexa-1,3-dienyl)heptan-2-ol]
- efficacy relative to the parent CT0093 (in words) [1]: somewhat less efficacious
- potency relative to the parent CT0093 (in words) [1]: maintained the potency of the parent compound
- efficacy relative to the parent CT0093 (in words) ([1]; listed as CT01296): slightly less efficacious
- clearance (in vivo): 120 ± 13 mL/min/kg
- half-life (in vivo): 1.15 ± 0.0833 h

SMILES: C[N+](C)(C)CCCCCC[N+](C)(C)C [hexamethonium bromide, reference compound]
- block of Abeta oligomer effects on membrane trafficking (in words) [1]: none were active

SMILES: CC12CC3CC(C)(C1)CC(N)(C3)C2 [memantine, reference compound]
- inhibition at 28 µM ([1]; Rattus norvegicus, Primary neuron, 28 μM memantine, plate control, read-out: inhibition of oligomer effects): 50%

SMILES: Cc1ccc(C(C)CC(CC(C)(C)O)NCC(C)C)cc1 (stereo not drawn) [CT1297, 4-(isobutylamino)-2-methyl-6-p-tolylheptan-2-ol]
- potency relative to the parent CT0093 (in words) [1]: significantly less potent than the parent CT0093
- fold less potent than the parent CT0093 ([1]; primary screening assay): ~2 fold
- clearance (in vivo): 101 ± 12 mL/min/kg
- half-life (in vivo): 2.68 ± 1.62 h

SMILES: COc1cc(CCC(C)NCc2ccc(C(F)(F)F)cc2)ccc1O (stereo not drawn) [CT0109, 4-(3-(4-(trifluoromethyl)benzylamino)butyl)-2-methoxyphenol]
- EC50 ([1]; Rattus norvegicus, Primary neuron, MTT assay, primary neurons, read-out: EC50, block of Abeta oligomer-induced acceleration of exocytosis / oligomer effects on membrane trafficking): 7 µM
- block of Abeta oligomer effects on membrane trafficking (in words) [1]: effective in both prevention; also recorded: effective at stopping Abeta oligomer mediated effects on membrane trafficking
- pharmacological competition with Abeta oligomers ([1]; synthetic and human Alzheimer's patient-derived oligomers): exhibit pharmacological competition with both synthetic (A, B) and human Alzheimer's patient-derived (C, D) oligomers
- block of Abeta oligomer effects on memory ([2]; 2 pmol dose, given prior to Abeta oligomers (200 nM), mice): blocked oligomer effects on memory; also recorded: completely blocked the effect of Abeta on memory
- adverse behavioral changes ([2]; any dose): No adverse behavioral changes were observed
- effect of compound alone on memory ([2]; without Abeta): No effect of compound alone was observed
- improvement of memory / cognitive performance of transgenic mice [3]: capable of improving cognitive performance in the transgenic model of AD; also recorded: improve memory deficits in a transgenic mouse model of Alzheimer's disease
- block of Abeta oligomer-induced synapse loss [4]: inhibition of processed product of amyloid precursor protein-mediated synapse loss
